In PubChem BioAssay AID248 (DTP/NCI, 2004):
“And” between values parts separate entries of the source, which are not always exact repeats. Equal entries are not always repeated. Inconclusive results and toxic doses are left out. No stated cut-off is given here; in the data, active means T/C of 150% or more; inactive means T/C below 125%.

Tested on: L1210 leukemia ip in BDF1 mice, survival T/C
Assay: NCI In Vivo Anticancer Drug Screen. Data for tumor model L1210 Leukemia (intraperitoneal) in B6D2F1 (BDF1) mice
Conditions: endpoint: mean survival time, higher = longer survival
Method in brief: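 Transplanted-tumor mice were given test agent; controls received vehicle only. Survival readings from the two groups were divided (treated over control).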

[1] = dose: 75.0 mg/kg/injection, schedule: Q01DX009 (ip), vehicle: Klucel (hydroxypropylcellulose) (HPC)
[2] = dose: 150.0 mg/kg/injection, schedule: Q01DX009 (ip), vehicle: Klucel (hydroxypropylcellulose) (HPC)
[3] = dose: 300.0 mg/kg/injection, schedule: Q01DX009 (ip), vehicle: Klucel (hydroxypropylcellulose) (HPC)
[4] = dose: 100.0 mg/kg/injection, schedule: Q04DX003 (ip), vehicle: saline with Tween-80
[5] = dose: 25.0 mg/kg/injection, schedule: Q01DX009 (ip), vehicle: Klucel (hydroxypropylcellulose) (HPC)
[6] = dose: 50.0 mg/kg/injection, schedule: Q01DX009 (ip), vehicle: Klucel (hydroxypropylcellulose) (HPC)
[7] = dose: 100.0 mg/kg/injection, schedule: Q01DX009 (ip), vehicle: Klucel (hydroxypropylcellulose) (HPC)
[8] = dose: 100.0 mg/kg/injection, schedule: Q04DX003 (ip), vehicle: Klucel (hydroxypropylcellulose) (HPC)
[9] = dose: 200.0 mg/kg/injection, schedule: Q01DX009 (ip), vehicle: Klucel (hydroxypropylcellulose) (HPC)
[10] = dose: 200.0 mg/kg/injection, schedule: Q04DX003 (ip), vehicle: Klucel (hydroxypropylcellulose) (HPC)
[11] = dose: 400.0 mg/kg/injection, schedule: Q01DX009 (ip), vehicle: Klucel (hydroxypropylcellulose) (HPC)
[12] = dose: 100.0 mg/kg/injection, schedule: Q01DX001 (ip), vehicle: saline
[13] = dose: 200.0 mg/kg/injection, schedule: Q01DX001 (ip), vehicle: saline
[14] = dose: 400.0 mg/kg/injection, schedule: Q01DX001 (ip), vehicle: saline
[15] = dose: 100.0 mg/kg/injection, schedule: Q01DX001 (ip), vehicle: Klucel (hydroxypropylcellulose) (HPC)
[16] = dose: 200.0 mg/kg/injection, schedule: Q01DX001 (ip), vehicle: Klucel (hydroxypropylcellulose) (HPC)
[17] = dose: 400.0 mg/kg/injection, schedule: Q01DX001 (ip), vehicle: Klucel (hydroxypropylcellulose) (HPC)
[18] = dose: 400.0 mg/kg/injection, schedule: Q04DX003 (ip), vehicle: Klucel (hydroxypropylcellulose) (HPC)
[19] = dose: 100.0 mg/kg/injection, schedule: Q04DX002 (ip), vehicle: saline with Tween-80
[20] = dose: 200.0 mg/kg/injection, schedule: Q04DX002 (ip), vehicle: saline with Tween-80
[21] = dose: 400.0 mg/kg/injection, schedule: Q04DX002 (ip), vehicle: saline with Tween-80
[22] = dose: 100.0 mg/kg/injection, schedule: Q04DX002 (ip), vehicle: Klucel (hydroxypropylcellulose) (HPC)
[23] = dose: 200.0 mg/kg/injection, schedule: Q04DX002 (ip), vehicle: Klucel (hydroxypropylcellulose) (HPC)
[24] = dose: 400.0 mg/kg/injection, schedule: Q04DX002 (ip), vehicle: Klucel (hydroxypropylcellulose) (HPC)

Measured: T/C

[O-]c1on[n+](-c2ccccc2)c1-c1ccccc1
inactive: [1] 93 % of control | dose: 75.0 mg/kg/injection, schedule: Q04DX003 (ip), vehicle: Klucel (hydroxypropylcellulose) (HPC) 109 % of control | [2] 97 % of control | dose: 150.0 mg/kg/injection, schedule: Q04DX003 (ip), vehicle: Klucel (hydroxypropylcellulose) (HPC) 105 % of control | [3] 95 % of control | dose: 300.0 mg/kg/injection, schedule: Q04DX003 (ip), vehicle: Klucel (hydroxypropylcellulose) (HPC) 107 % of control

CC1(C)Oc2ccccc2O1
inactive: [4] 93 % of control

CC(C)(O)C(C)(O)c1cccc(Cl)c1 (stereo not given)
inactive: dose: 12.5 mg/kg/injection, schedule: Q01DX009 (ip), vehicle: Klucel (hydroxypropylcellulose) (HPC) 100 % of control | [5] 109 % of control | dose: 25.0 mg/kg/injection, schedule: Q04DX003 (ip), vehicle: Klucel (hydroxypropylcellulose) (HPC) 91 % of control | [6] 100 % of control | dose: 50.0 mg/kg/injection, schedule: Q04DX003 (ip), vehicle: Klucel (hydroxypropylcellulose) (HPC) 93 % of control | [7] 100 % of control | [8] 96 % of control | [9] 98 % of control | [10] 90 % of control

C=CCNC(=S)Nc1ccc(OC(=O)NC(C)(C)C)cc1
inactive: [7] 94 % of control | [9] 95 % of control | [11] 89 % of control

O=S(=O)(CS(=O)(=O)Nc1ccccc1)Nc1ccccc1
inactive: dose: 25.0 mg/kg/injection, schedule: Q04DX003 (ip), vehicle: saline with Tween-80 113 % of control | dose: 50.0 mg/kg/injection, schedule: Q04DX003 (ip), vehicle: saline with Tween-80 116 % of control | [12] 94 % of control | [4] 111 % of control | [13] 94 % of control | [14] 94 % of control

CC(=O)OC1CCC2(C)C(=CC=C3C2CCC2(C)C3CCC2C(C)CCCC(C)C)C1 (stereo not given)
inactive: [15] 97 % of control | [16] 87 % of control | [17] 87 % of control

CCCN(CCC)[N+](=O)[O-]
inactive: dose: 100.0 mg/kg/injection, schedule: Q01DX001 (ip), vehicle: other 98 % of control | dose: 100.0 mg/kg/injection, schedule: Q04DX003 (ip), vehicle: other 104 % of control | dose: 200.0 mg/kg/injection, schedule: Q01DX001 (ip), vehicle: other 93 % of control | dose: 200.0 mg/kg/injection, schedule: Q04DX003 (ip), vehicle: other 101 % of control | dose: 400.0 mg/kg/injection, schedule: Q01DX001 (ip), vehicle: other 97 % of control | dose: 400.0 mg/kg/injection, schedule: Q04DX003 (ip), vehicle: other 98 % of control

CCOC(=O)/C=C(/CC(=O)OCC)Nc1ccc(C)cc1
inactive: [12] 89 % of control | [13] 99 % of control | [14] 97 % of control

O=C(Nc1cccc(O)c1)Nc1cc([N+](=O)[O-])ccc1F
inactive: [15] 91 % of control | [7] 100 % of control and 90 % of control | [8] 93 % of control | [16] 98 % of control | [9] 94 % of control and 95 % of control | [10] 102 % of control | [17] 94 % of control | [11] 94 % of control and 100 % of control | [18] 95 % of control

O=C1CSC=C(c2ccccc2)O1
inactive: [19] 115 % of control | [20] 101 % of control | [21] 112 % of control

Cc1ccc(S(=O)(=O)[O][Pb]([CH3])([CH3])[CH3])cc1
inactive: dose: 3.12 mg/kg/injection, schedule: Q01DX009 (ip), vehicle: saline 104 % of control | dose: 3.12 mg/kg/injection, schedule: Q04DX002 (ip), vehicle: saline 108 % of control | dose: 6.25 mg/kg/injection, schedule: Q01DX009 (ip), vehicle: saline 86 % of control | dose: 6.25 mg/kg/injection, schedule: Q04DX002 (ip), vehicle: saline 108 % of control | dose: 12.5 mg/kg/injection, schedule: Q04DX002 (ip), vehicle: saline 101 % of control

O=C1/C(=C/c2cccnc2)CCc2ccccc21
inactive: [5] 98 % of control | [6] 106 % of control | [7] 97 % of control | [4] 104 % of control | [9] 112 % of control | dose: 200.0 mg/kg/injection, schedule: Q04DX003 (ip), vehicle: saline with Tween-80 97 % of control

O=C(NC1C=CCCC1)c1ccccc1 (stereo not given)
inactive: dose: 50.0 mg/kg/injection, schedule: Q01DX009 (ip), vehicle: saline with Tween-80 102 % of control | dose: 100.0 mg/kg/injection, schedule: Q01DX009 (ip), vehicle: saline with Tween-80 96 % of control | dose: 200.0 mg/kg/injection, schedule: Q01DX009 (ip), vehicle: saline with Tween-80 96 % of control

c1ccc(C2=NC(c3ccccc3)(C3(c4ccccc4)SCCCS3)CO2)cc1 (stereo not given)
inactive: [1] 101 % of control | [8] 102 % of control | [2] 98 % of control | [10] 105 % of control | [3] 90 % of control | [18] 102 % of control

NC(N)=N/N=C(\C=N\N=C(N)N)c1ccc(CCc2ccc(C(/C=N/N=C(N)N)=N\N=C(N)N)cc2)cc1
inactive: dose: 1.56 mg/kg/injection, schedule: Q04DX003 (ip), vehicle: saline 98 % of control | dose: 3.12 mg/kg/injection, schedule: Q04DX003 (ip), vehicle: saline 103 % of control

COC(=O)c1c[nH]c2ccc(Br)cc12
inactive: dose: 100.0 mg/kg/injection, schedule: Q04DX003 (ip), vehicle: saline 108 % of control | dose: 200.0 mg/kg/injection, schedule: Q04DX003 (ip), vehicle: saline 92 % of control | dose: 400.0 mg/kg/injection, schedule: Q04DX003 (ip), vehicle: saline 89 % of control

CN(C)CC1CCC(CN(C)C)C1=O (stereo not given)
inactive: dose: 9.38 mg/kg/injection, schedule: Q01DX001 (ip), vehicle: other 106 % of control | dose: 9.38 mg/kg/injection, schedule: Q01DX001 (ip), vehicle: saline 104 % of control | dose: 18.75 mg/kg/injection, schedule: Q01DX001 (ip), vehicle: other 101 % of control | dose: 18.75 mg/kg/injection, schedule: Q01DX001 (ip), vehicle: saline 103 % of control | dose: 37.5 mg/kg/injection, schedule: Q01DX001 (ip), vehicle: other 115 % of control

COC1C(C(=O)O)=CC=CC1OC(C)=O (stereo not given)
inactive: [12] 90 % of control | [13] 102 % of control | [14] 104 % of control

CCCCCCCCC(O)(CCCCCCC)C(=O)O (stereo not given)
inactive: [22] 95 % of control | [23] 117 % of control | [24] 115 % of control

C=CCN(CCN(CC)CC)C(=O)C(O)(c1ccccc1)c1ccccc1
inactive: [19] 93 % of control | [20] 93 % of control | [21] 95 % of control

O=C(CCl)Nc1cc(Cl)ccc1N1CCCC1
inactive: dose: 12.5 mg/kg/injection, schedule: Q01DX009 (ip), vehicle: acetone 100 % of control | dose: 25.0 mg/kg/injection, schedule: Q01DX009 (ip), vehicle: acetone 90 % of control | dose: 50.0 mg/kg/injection, schedule: Q01DX009 (ip), vehicle: acetone 90 % of control

N#CCCP(CCC#N)CCCCCP(CCC#N)CCC#N
inactive: dose: 100.0 mg/kg/injection, schedule: Q01DX001 (ip), vehicle: saline with Tween-80 100 % of control | dose: 200.0 mg/kg/injection, schedule: Q01DX001 (ip), vehicle: saline with Tween-80 92 % of control | dose: 400.0 mg/kg/injection, schedule: Q01DX001 (ip), vehicle: saline with Tween-80 86 % of control

CCC1(CCCCCBr)OCCO1
inactive: [22] 101 % of control | [23] 108 % of control | [24] 104 % of control

Cc1ccc(C2CC2S(=O)(=O)c2ccccc2)cc1 (stereo not given)
inactive: [12] 108 % of control | [13] 112 % of control | [14] 102 % of control
